# Where two headings read alike, the source gives them in different places.
# Key:
# [1] = system: S. aureus ATCC 29213; experiment: Resistance passaging experiment; type: cell-based; conditions: for MIC: Staphylococcus aureus
# Method: (§1) Two compounds (#880 and #169) were tested in time-kill assays against S. aureus strain 29213. These compounds were then used to attempt to select for resistant variants by passaging at sub-MIC concentrations for 20 passages.
# The selected strain for this experiment was S. aureus ATCC 29213. A frozen glycerol stock was streaked onto MH-II agar and grown overnight at 37° C. The next day, 3-5 colonies were picked and grown in 3 mL of MH-II broth at 37° C. with 200 rpm shaking for approximately 4 hours. A 2-fold microdilution (in round-bottom, 96-well plates) was made for each compound being tested. CLSI guidelines for broth microdilution were followed. Using the bacteria grown from the overnight colonies, each microdilution was inoculated at a final concentration of 5×10^5 colony forming units (CFU)/mL. The microdilutions were incubated at 37° C. for 16 to 20 hours, after which the minimal inhibitory concentration (MIC) of each was read visually. The MIC is defined as the lowest concentration of compound resulting in no visible bacterial growth. This activity is recorded as the MIC at Passage 0. The contents of the well in the next dilution lower in concentration than the MIC (i.e., ½ the MIC) was mixed with a micropipette and 50 μL was transferred to 3 mL of fresh MH-II broth. This was grown at 37° C. with 200 rpm shaking for approximately 4 hours, at which time the sample was turbid. A 1 mL aliquot of this sample was added to a cryovial containing 300 μL of glycerol. This was marked as passage 1, vortexed, than placed in a −80° C. freezer for storage. The rest of the culture was adjusted to a bacterial concentration of 1×10^6cfu/mL (OD600 of 0.004), which was then used to inoculate a microdilution of the same compound (final bacterial concentration of 5×10^5 cfu/mL). This was incubated at 37° C. for 16 to 20 hours. After that time the MIC was once again read and recorded as the MIC at Passage 1. This process was repeated through 20 passages. Ciprofloxacin was included as a control and an untreated sample was also passaged 20 times as a negative control.
# [2] = system: S. aureus specific Arg ASL (anticodon stem loop) RNA oligomer interaction with programmed ribosomes; experiment: Fluorescence polarization assay of Arg ASL / programmed ribosome complex (HTS and dose response); type: binding, S. aureus Arg ASL; E. coli 70S ribosomes; conditions: control compounds
# Excerpt: The assay requires the following materials: • Ribosomes—isolated from E. coli or S. aureus • fMet tRNA (Sigma or Chemical Block, Moscow) • mRNA (including the S-D sequence, the “box” sequence, the codon for methionine, and the codon for arginine that is specific for S. aureus, AGA, optionally with additional base pairs to the left of the S-D sequence and/or to the right of the codon for arginine) • Fluorescently labeled Arg ASL oliogomer • Buffer—HAM20,β • 384 well high binding micro titer plates (Matrix Technologies #4319, sold by Fischer Scientific as cat #50823855), or other appropriate plates for use in high throughput screening • Filtration (Sartorius Stedium 100 Kdalton VC 1042) or centrifugation for complex purification • EDTA—negative control (binding antagonist) • Neomycin—A-site binding enhancer (binding agonist)
# A ribosome complex was prepared using the above materials and then purified prior to use in the assay. The prepared complex can be stored in concentrated form at −80° C. The complexes were diluted in buffer and dispensed onto plates. […] Fluorescence polarization was measured at approximately 4 hours after dispensing onto the micro-titer plates.
# ASL^Arg was first heated for 2 min at 90° C. in water, after addition of 1/10 V of 10× buffer incubation continued on ice for at least 10 min. Prior to complex formation 70S ribosomes and tRNA were reactivated in buffer for 5 min at 45° C. followed by 10 min at 37° C.; mRNA was heated in buffer at 37° C. for 5 min. • (1000 μl×(2 μM E. coli 70S ribosomes+10 μM mRNA-Arg+4 μM tRNA^fmet)/HAM20,β→30 min @ 37° C.,+1000 μl×(0.2 μM neomycin+[…]))→20 min @ 37° C., overnight on ice • Final complex: (2000 pm P+2000 pm ASL)/2 ml=1 μM P+1 μM ASL HAM20,β:
# Preparation of Complexes: The purified complex was diluted in ice cold HAM20,β such that the total fluorescence was approximately 2,000,000 units per 5 μL.
# 20 μl of the diluted complex was added to all 384 well plates (except for blank wells, which received 20 μL of HAM20 only, without complex) using Multidrop dispenser after which the plates were incubated at 25° C. for 4 hours (target 4.5 hours for middle of batch). Plates were then analyzed for fluorescence polarization in Analyst HT fluorescence plate reader and the following instrument settings:
# The parallel and perpendicular fluorescence values of experimental wells were automatically corrected for the corresponding values obtained from the blank wells. The fluorescence polarization was calculated as following: P=(I−Ip)/(I+Ip), wherein Ip—is perpendicular fluorescence and I—is parallel fluorescence.
# The percent of effect of experimental compounds was calculated as following: %-Inh=(P0−Pc)/(P0−P100)*100, wherein P0—is average polarization in 0%—inhibition control wells, P100—is average polarization in 100%—inhibition control wells, and Pc—is polarization in compound well.
# The 3 sigma HTS hits were cherry picked and retested in 6 pt dose response format, using 3× serial dilution and the top nominal concentration of 100 uM.
# The compounds were serially diluted in 10% DMSO and plated into 384 well plates (in a volume of 5 μL) to achieve the nominal final concentration raging from 100 μM to 0.4 μM. The plates received 20 μl of the diluted complex following incubation at 25° C. for 4 hours. Plates were then analyzed for fluorescence polarization as described above (see HTS section).
# In parallel, the compounds were tested for auto-fluorescence. To this end, the compounds were plated (using the same dilution protocol) into 384 well plates. The plates received 20 μL of the HAM20 assay buffer only (without complex). The plates were incubated for 4 hrs and then were analyzed for fluorescence polarization as described above.
# [3] = system: S. aureus strain 29213; experiment: Time-kill experiments; type: cell-based; conditions: by 8 hours
# Method: as §1
# Twenty mL of MH-II media warmed to 37° C. was seeded with log-phase growth S. aureus strain 29213 at 1×10^6 cfu/mL in 50 mL erlenmeyer shake-flasks. Compound was added at 2× and 4× the MIC value. Negative controls (no drug) and positive drug controls (vancomycin at 2× and 4× the MIC) were included in the experiment. Flasks were shaken at 200 rpm and 37° C. Samples were taken at the times indicated (0, 2, 4, 6, 8 and 24 hrs post inoculation) and bacterial loads were quantified by limiting dilution assay.
molecule,measurement,setting,value
O=C(O)c1cn(C2CC2)c2cc(N3CCNCC3)c(F)cc2c1=O [Ciprofloxacin],MIC in S. aureus 29213,[1]; Passage 0,0.5 µg/mL
same,MIC in S. aureus 29213,"[1]; Passage 20, passaged at sub-MIC",> 256 µg/mL
same,MIC,"[1]; ATCC29213, read-out: MIC in S. aureus 29213, Passage 0",0.5 µg/mL
same,MIC,"[1]; ATCC29213, read-out: MIC in S. aureus 29213, Passage 1, passaged at sub-MIC",1 µg/mL
same,MIC,"[1]; ATCC29213, read-out: MIC in S. aureus 29213, Passage 2, passaged at sub-MIC",2 µg/mL
same,MIC,"[1]; ATCC29213, read-out: MIC in S. aureus 29213, Passage 3, passaged at sub-MIC",2 µg/mL
same,MIC,"[1]; ATCC29213, read-out: MIC in S. aureus 29213, Passage 4, passaged at sub-MIC",2 µg/mL
same,MIC,"[1]; ATCC29213, read-out: MIC in S. aureus 29213, Passage 5, passaged at sub-MIC",2 µg/mL
same,MIC,"[1]; ATCC29213, read-out: MIC in S. aureus 29213, Passage 6, passaged at sub-MIC",2 µg/mL
same,MIC,"[1]; ATCC29213, read-out: MIC in S. aureus 29213, Passage 7, passaged at sub-MIC",2 µg/mL
same,MIC,"[1]; ATCC29213, read-out: MIC in S. aureus 29213, Passage 8, passaged at sub-MIC",4 µg/mL
same,MIC,"[1]; ATCC29213, read-out: MIC in S. aureus 29213, Passage 9, passaged at sub-MIC",8 µg/mL
same,MIC,"[1]; ATCC29213, read-out: MIC in S. aureus 29213, Passage 10, passaged at sub-MIC",8 µg/mL
same,MIC,"[1]; ATCC29213, read-out: MIC in S. aureus 29213, Passage 11, passaged at sub-MIC",16 µg/mL
same,MIC,"[1]; ATCC29213, read-out: MIC in S. aureus 29213, Passage 12, passaged at sub-MIC",16 µg/mL
same,MIC,"[1]; ATCC29213, read-out: MIC in S. aureus 29213, Passage 13, passaged at sub-MIC",32 µg/mL
same,MIC,"[1]; ATCC29213, read-out: MIC in S. aureus 29213, Passage 14, passaged at sub-MIC",32 µg/mL
same,MIC,"[1]; ATCC29213, read-out: MIC in S. aureus 29213, Passage 15, passaged at sub-MIC",32 µg/mL
same,MIC,"[1]; ATCC29213, read-out: MIC in S. aureus 29213, Passage 16, passaged at sub-MIC",64 µg/mL
same,MIC,"[1]; ATCC29213, read-out: MIC in S. aureus 29213, Passage 17, passaged at sub-MIC",128 µg/mL
same,MIC,"[1]; ATCC29213, read-out: MIC in S. aureus 29213, Passage 18, passaged at sub-MIC",128 µg/mL
same,MIC,"[1]; ATCC29213, read-out: MIC in S. aureus 29213, Passage 19, passaged at sub-MIC",256 µg/mL
same,MIC,"[1]; ATCC29213, read-out: MIC in S. aureus 29213, Passage 20, passaged at sub-MIC",> 256 µg/mL
same,MIC,"[1]; ATCC29213, read-out: MIC in S. aureus 29213, second Passage 10 line of Table 4 (untreated culture passaged 10 times)",0.5 µg/mL
same,MIC,"[1]; ATCC29213, read-out: MIC in S. aureus 29213, second Passage 20 line of Table 4 (untreated culture passaged 20 times)",0.5 µg/mL
same,increase of MIC over 20 passages,"[1]; passaging at sub-MIC concentration, 20 passages",> 512 fold
"O=C(O)CN(CCN(CC(=O)O)CC(=O)O)CC(=O)O [EDTA, reference compound]","effect on complex formation (fluorescence polarization versus time, FIG. 11)",[2],inhibitor of complex formation
"CN[C@H](CC(C)C)C(=O)N[C@H]1C(=O)N[C@@H](CC(N)=O)C(=O)N[C@H]2C(=O)N[C@H]3C(=O)N[C@H](C(=O)N[C@H](C(=O)O)c4cc(O)cc(O)c4-c4cc3ccc4O)[C@H](O)c3ccc(c(Cl)c3)Oc3cc2cc(c3O[C@@H]2O[C@H](CO)[C@@H](O)[C@H](O)[C@H]2O[C@H]2C[C@](C)(N)[C@H](O)[C@H](C)O2)Oc2ccc(cc2Cl)[C@H]1O [Vancomycin, reference compound]",reduction of bacterial counts,[3]; 2× the MIC,2.5 log10
same,reduction of bacterial counts (killing),[3]; 4× the MIC,2.5 log10
Neomycin [reference compound],"effect on complex formation (fluorescence polarization versus time, FIG. 11)",[2],stabilizer of complex formation

# From US10316371B2, “Screening methods for identifying specific Staphylococcus aureus inhibitors” (TRANA DISCOVERY, INC., priority 2011, dated 2019)
